Molecular target: T1, LRRK2 G2019S mutant kinase (Homo sapiens, UniProt Q5S007, G2019S)
T1 construct: GST; purchased Invitrogen PV4882
Assay: LRRK2 G2019S LanthaScreen TR-FRET kinase assay
Type: biochemical
Conditions: LRRK2 G2019S GST-tagged protein, 75 nM Fluorescein-ERM (LRRKtide), 100 μM ATP, 1 hour at room temperature; read-out: IC50 (potency)
Procedure: The final solvent concentration in the assay was 1% DMSO. […] Generation of raw data and workup of data to derive the IC50 (potency) and maximal inhibition at concentrations tested were performed using Merck's Assay Data Analyzer (ADA) software.
The IC50 (potency) was evaluated for the example compounds presented above.

T1 sequence (Q5S007 whole entry G2019S): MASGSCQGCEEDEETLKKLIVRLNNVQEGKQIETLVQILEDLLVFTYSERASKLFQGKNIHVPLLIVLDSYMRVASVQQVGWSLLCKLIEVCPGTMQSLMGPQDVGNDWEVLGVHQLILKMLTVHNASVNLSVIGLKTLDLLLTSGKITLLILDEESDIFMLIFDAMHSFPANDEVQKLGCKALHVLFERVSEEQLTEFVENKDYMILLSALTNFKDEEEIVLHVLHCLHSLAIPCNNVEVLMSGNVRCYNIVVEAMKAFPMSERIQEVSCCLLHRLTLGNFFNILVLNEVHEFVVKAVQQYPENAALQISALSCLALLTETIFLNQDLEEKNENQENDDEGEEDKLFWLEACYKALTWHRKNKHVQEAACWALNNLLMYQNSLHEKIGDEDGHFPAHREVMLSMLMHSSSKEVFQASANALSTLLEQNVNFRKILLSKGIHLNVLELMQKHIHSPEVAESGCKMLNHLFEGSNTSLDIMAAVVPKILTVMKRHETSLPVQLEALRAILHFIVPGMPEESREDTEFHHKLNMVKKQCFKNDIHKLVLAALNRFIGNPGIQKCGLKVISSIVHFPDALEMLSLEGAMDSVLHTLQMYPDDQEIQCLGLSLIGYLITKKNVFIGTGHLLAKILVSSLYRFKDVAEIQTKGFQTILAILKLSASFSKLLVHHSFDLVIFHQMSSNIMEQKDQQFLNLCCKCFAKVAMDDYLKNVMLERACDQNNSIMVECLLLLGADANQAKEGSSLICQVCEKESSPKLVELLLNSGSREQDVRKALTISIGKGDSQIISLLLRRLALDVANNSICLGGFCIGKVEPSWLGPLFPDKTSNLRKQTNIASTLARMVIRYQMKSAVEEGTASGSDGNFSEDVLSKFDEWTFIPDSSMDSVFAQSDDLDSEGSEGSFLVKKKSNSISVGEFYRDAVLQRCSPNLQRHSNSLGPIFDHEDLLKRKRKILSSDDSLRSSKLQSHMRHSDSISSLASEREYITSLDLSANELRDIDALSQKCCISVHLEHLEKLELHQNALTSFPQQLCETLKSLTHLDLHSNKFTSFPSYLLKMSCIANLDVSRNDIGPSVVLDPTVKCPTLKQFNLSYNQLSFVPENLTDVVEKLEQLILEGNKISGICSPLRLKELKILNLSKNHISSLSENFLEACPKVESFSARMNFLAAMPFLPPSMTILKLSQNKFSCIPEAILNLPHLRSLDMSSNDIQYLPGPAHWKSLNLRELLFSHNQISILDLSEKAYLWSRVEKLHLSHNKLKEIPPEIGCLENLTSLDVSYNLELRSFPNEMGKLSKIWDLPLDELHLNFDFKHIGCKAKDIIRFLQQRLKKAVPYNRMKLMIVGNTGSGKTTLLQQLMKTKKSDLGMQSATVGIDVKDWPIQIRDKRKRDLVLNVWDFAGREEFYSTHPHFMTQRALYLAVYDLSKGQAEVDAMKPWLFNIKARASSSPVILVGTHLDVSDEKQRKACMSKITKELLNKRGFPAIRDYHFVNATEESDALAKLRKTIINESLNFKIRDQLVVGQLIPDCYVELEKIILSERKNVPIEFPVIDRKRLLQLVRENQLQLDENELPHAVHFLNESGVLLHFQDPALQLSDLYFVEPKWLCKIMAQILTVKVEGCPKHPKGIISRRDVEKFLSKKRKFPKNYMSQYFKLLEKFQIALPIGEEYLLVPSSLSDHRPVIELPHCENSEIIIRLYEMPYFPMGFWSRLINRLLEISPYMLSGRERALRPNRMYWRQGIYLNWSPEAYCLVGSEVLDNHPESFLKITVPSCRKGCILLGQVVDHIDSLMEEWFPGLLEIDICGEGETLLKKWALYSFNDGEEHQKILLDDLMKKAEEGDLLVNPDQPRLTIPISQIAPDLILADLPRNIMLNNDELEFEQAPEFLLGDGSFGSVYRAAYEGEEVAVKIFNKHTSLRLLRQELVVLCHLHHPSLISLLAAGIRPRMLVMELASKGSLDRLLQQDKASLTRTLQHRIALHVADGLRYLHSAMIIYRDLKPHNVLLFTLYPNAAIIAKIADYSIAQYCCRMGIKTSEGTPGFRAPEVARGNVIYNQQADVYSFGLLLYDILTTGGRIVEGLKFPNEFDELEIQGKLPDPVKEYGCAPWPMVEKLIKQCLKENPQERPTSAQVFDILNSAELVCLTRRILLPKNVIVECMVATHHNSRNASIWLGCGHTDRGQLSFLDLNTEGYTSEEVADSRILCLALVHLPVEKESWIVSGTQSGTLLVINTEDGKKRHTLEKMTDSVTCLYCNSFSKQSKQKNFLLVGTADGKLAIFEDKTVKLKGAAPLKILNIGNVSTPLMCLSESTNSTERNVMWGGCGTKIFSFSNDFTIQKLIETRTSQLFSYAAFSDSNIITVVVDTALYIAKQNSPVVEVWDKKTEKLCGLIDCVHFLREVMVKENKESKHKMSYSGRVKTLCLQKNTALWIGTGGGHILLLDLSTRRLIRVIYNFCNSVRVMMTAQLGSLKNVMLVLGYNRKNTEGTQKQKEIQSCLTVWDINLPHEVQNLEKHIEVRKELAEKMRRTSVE

`CSc1sc(-c2cc[nH]n2)c2c1C(=O)N(CCC1CCCCC1)CC2` [Example 71, 3-(methylsulfanyl)-5-[(2-cyclohexyl)ethyl]-1-(1H-pyrazol-3-yl)-6,7-dihydrothieno[3,4-c]pyridin-4(5)-one] and `CSc1sc(-c2cc[nH]n2)c2c1C(=O)N(CCC1CCCNC1)CC2` (stereo not drawn) [Example 73, 3-(methylsulfanyl)-5-[2-(3-piperidinyl)ethyl]-1-(1H-pyrazol-3-yl)-6,7-dihydrothieno[3,4-c]pyridin-4(5)-one] are within 1.5-fold of each other in IC50: 7500 nM for the first, 5900 nM for the second.

Going from `CNc1sc(-c2cc[nH]n2)c2c1C(=O)NCC2` [Example 91, 3-(methylamino)-(1H-pyrazol-3-yl)-6,7-dihydrothieno[3,4-c]pyridin-4(5H)-one] to `CNc1sc(-c2cc[nH]n2)c2c1C(=O)NC1(CCC1)C2` [Example 94, 3′-(methylamino)-4′-oxo-1′-(1H-pyrazol-3-yl)-7′H-spiro[cyclobutane-1,6′-thieno[3,4-1]pyridine]-4′(5′H)-one], the IC50 falls from 1400 nM to 550 nM (2.5-fold).

`CSc1sc(-c2cc[nH]n2)c2c1C(=O)NC(Cc1ccccc1)C2` (stereo not drawn) [Example 2, 6-benzyl-3-(methylsulfanyl)-1-(1H-pyrazol-3-yl)-6,7-dihydrothieno[3,4-c]pyridin-4(5)-one] and `O=C1NC(Cc2ccccc2)Cc2c(-c3cc[nH]n3)sc(NC3CCCC3)c21` (stereo not drawn) [Example 92, 3-(cyclopentylamino)-6-benzyl-1-(1H-pyrazol-3-yl)-6,7-dihydrothieno[3,4-c]pyridin-4(5H)-one] are within 1.5-fold of each other in IC50: 260 nM for the first, 290 nM for the second.

`O=C1NCCc2c(-c3cc[nH]n3)sc(SCCO)c21` [Example 47] and `O=C1NCCc2c(-c3cc[nH]n3)sc(SCCCO)c21` [Example 38] are within 1.5-fold of each other in IC50: 580 nM for the first, 640 nM for the second.

Going from `CSc1sc(-c2cc[nH]n2)c2c1C(=O)NC1(CCC1)C2` [Example 5, 3′-(methylsulfanyl)-4′-oxo-1′-(1H-pyrazol-3-yl)-7′H-spiro[cyclobutane-1,6′-thieno[3,4-1]pyridine]-4′(5′H)-one] to `CSc1sc(-c2cc[nH]n2)c2c1C(=O)NC(C1CC1)C2` (stereo not drawn) [Example 13, 6-cyclopropyl-3-(methylsulfanyl)-1-(1H-pyrazol-3-yl)-6,7-dihydrothieno[3,4-c]pyridin-4(5)-one], the IC50 rises from 160 nM to 450 nM (2.8-fold). The first is the more potent here.

Compared with `CSc1sc(-c2cc[nH]n2)c2c1C(=O)N[C@H](c1ccc(F)cc1)C2` [Example 18, (6S)-3-(methylsulfanyl)-6-(4-fluorophenyl)-1-(1H-pyrazol-3-yl)-6,7-dihydrothieno[3,4-c]pyridin-4(5)-one], `CSc1sc(-c2cc[nH]n2)c2c1C(=O)N[C@H](c1cc(F)cc(F)c1)C2` [Example 16, (6S)-3-(methylsulfanyl)-6-(3,5-difluorophenyl)-1-(1H-pyrazol-3-yl)-6,7-dihydrothieno[3,4-c]pyridin-4(5)-one] is 2.8-fold higher in IC50: 85 nM for the first, 240 nM for the second.

First: COc1cccc(N2CCc3c(-c4cc[nH]n4)sc(SC)c3C2=O)c1 [Example 84, 5-(3-methoxyphenyl)-3-(methylsulfanyl)-1-(1H-pyrazol-3-yl)-6,7-dihydrothieno[3,4-c]pyridin-4(5)-one]
Second: CSc1sc(-c2cc[nH]n2)c2c1C(=O)N(Cc1cccnc1Cl)CC2 [Example 58, 5-[(2-chloropyridin-3-yl)methyl]-3-(methylsulfanyl)-1-(1H-pyrazol-3-yl)-6,7-dihydrothieno[3,4-c]pyridin-4(5)-one]
The IC50 of the first is 1.6-fold higher: 4700 nM for the first, 3000 nM for the second.

Going from `O=C1NCCc2c(-c3cc[nH]n3)sc(SC3CCCC3)c21` [Example 30, 3-(Cyclopentylsulfanyl)-1-(1H-pyrazol-3-yl)-6,7-dihydrothieno[3,4-c]pyridin-4(5H)-one] to `CC1CNC(=O)c2c(SCC3CC3)sc(-c3cc[nH]n3)c21` (stereo in doubt) [Example 29], the IC50 falls from 290 nM to 31 nM (9.4-fold). The second is the more potent here.

`CSc1sc(-c2cc[nH]n2)c2c1C(=O)N(CCCc1ccccc1)CC2` [Example 79] and `CSc1sc(-c2cc[nH]n2)c2c1C(=O)N(Cc1ccc(Br)cn1)CC2` [Example 57, 5-[(5-bromopyridin-2-yl)methyl]-3-(methylsulfanyl)-1-(1H-pyrazol-3-yl)-6,7-dihydrothieno[3,4-c]pyridin-4(5)-one] are within 1.5-fold of each other in IC50: 3500 nM for the first, 3800 nM for the second.

Source: US9233977B2, “Leucine-rich repeat kinase enzyme activity” (Merck Sharp & Dohme Corp., priority 2010, dated 2016)
